From paper PMC6718442, “11β-Hydroxysteroid dehydrogenases control access of 7β,27-dihydroxycholesterol to retinoid-related orphan receptor γ” (Journal of Lipid Research, 2019)
“And” between values parts separate entries of the source, which are not always exact repeats. Equal values may be shown once. Read-outs that look alike come from different tables or passages of the source.

Assays:
human 11β-HSD1 [1] = target: T1, human 11β-HSD1 (Homo sapiens, UniProt P28845); assay: Inhibition of 11β-HSD1-dependent oxoreduction of cortisone in HEK-293 cell lysates; format: biochemical; conditions: for IC50: human enzyme, 200 nM cortisone, read-out: IC50, 11β-HSD1-dependent conversion of cortisone to cortisol
T1 construct: expressed in transfected cells
Description: 11β-HSD1 and 11β-HSD2 enzyme activities were assessed in lysates of HEK-293 cells stably expressing the respective enzyme as reported earlier ([40]). Briefly, 11β-HSD1-dependent oxoreductase activity was determined by the incubation of lysates with 200 nM of radiolabeled cortisone, 500 μM of NADPH, and the test substance or vehicle for 10 min at 37°C. 11β-HSD2-dependent oxidation of cortisol was measured instead by the addition of 50 nM of radiolabeled cortisol and 500 μM of NAD^+. The enzymatic reaction was stopped by introducing an excess amount of unlabeled cortisone and cortisol (1:1, 2 mM unlabeled each, in methanol). Cortisone and cortisol were separated using TLC and a chloroform and methanol (9:1, v/v) mixture. The bands were detected under UV light, scraped off the plate, and metabolism of the radiolabeled substrate was then evaluated by scintillation counting and the substrate conversion determined and compared with the control sample. Data (mean ± SD) were normalized to the control (DMSO) sample and obtained from at least three independent experiments.

human 11β-HSD1 [2] = target: T1, human 11β-HSD1; assay: 11β-HSD1-dependent metabolism of 7-oxygenated 27OHCs in intact HEK-293 cells expressing 11β-HSD1 and H6PDH; format: cell-based; conditions: for Metabolism by 11β-HSD1 in intact cells (in words): 1 μM substrate, 60 min
Description: Fifty thousand stably transfected HEK-293 cells expressing either 11β-HSD2 [clone AT8 ([34])] or 11β-HSD1 and hexose-6-phosphate dehydrogenase (H6PDH) [clone HHH7 ([35])] were seeded in poly-L-lysine-coated 96-well plates and incubated for 24 h. H6PDH provides the cofactor NADPH and is required for an efficient oxoreduction reaction by 11β-HSD1 ([36]). The medium was changed to steroid- and phenol red-free DMEM (DMEM SF) for another 2 h and the cells were then treated with 1 μM of 7k27OHC in the presence or absence of 1 μM of T0504 (to inhibit 11β-HSD1) or 0.5 μM of 7β27OHC or 7α27OHC in the presence or absence of 5 μM of glycyrrhetinic acid (GA) (to inhibit 11β-HSD2). Metabolic conversion was determined after 0.5 h for 11β-HSD2 and after 1 h for 11β-HSD1.
Ice-cold acetonitrile:isopropanol (7:3, v/v) mixture containing either 100 nM deuterium-labeled 7β27OHC or corticosterone as internal standards were used to extract oxysterols from cell culture supernatants. Additionally, 1.5% (v/v) of a standard solution of the antioxidant butylated hydroxytoluene (BHT) and the peroxide reducing agent triphenylphosphine (TPP) (10 mg BHT and 25 mg TPP in 10 ml ethanol) was added ([37]). In experiments with SW-620 cells, oxysterols were extracted from cell supernatants and cells. The samples were incubated for 30 min at 4°C and 700 rotations per minute, centrifuged (16,000 g, 10 min, 4°C), and the supernatant evaporated to dryness under nitrogen to minimize oxidation from atmospheric oxygen. After reconstitution in 50 μl of methanol:ultra-pure water (1:1, v/v), the samples were again centrifuged (16,000 g, 10 min, 4°C) and the supernatants analyzed. Data (mean ± SD) were obtained from three independent experiments.
An Agilent 1290 Infinity UHPLC binary solvent delivery system including a temperature controlled autosampler and a column oven coupled to an Agilent 6490 triple quadrupole mass spectrometer with a jet stream electrospray ionization interface (AJS-ESI) (Agilent Technologies) was used to analyze oxysterols. A reversed-phase column (ACQUITY UPLC BEH C18, 1.7 μm, 2.1 × 150 mm; Waters, Wexford, Ireland) heated to 65 ± 0.8°C was applied for analyte separation. The flow-rate was 0.5 ml with solvent A [water/acetonitrile/formic acid (95/5/0.1, v/v/v)] and solvent B [water/acetonitrile/formic acid (5/95/0.1, v/v/v)]. The eluent gradient was set as follows: 0–4.5 min 45–97% B, 4.5–7 min 80% B (washout), and 7–9 min 45% B (column re-equilibration). Methanol/water (75/25, v/v) was used as needle and needle-seat flushing solvent for 10 s after sample aspiration. The samples were stored in the autosampler at 4°C until analysis. […]

T1 sequence (P28845 whole entry): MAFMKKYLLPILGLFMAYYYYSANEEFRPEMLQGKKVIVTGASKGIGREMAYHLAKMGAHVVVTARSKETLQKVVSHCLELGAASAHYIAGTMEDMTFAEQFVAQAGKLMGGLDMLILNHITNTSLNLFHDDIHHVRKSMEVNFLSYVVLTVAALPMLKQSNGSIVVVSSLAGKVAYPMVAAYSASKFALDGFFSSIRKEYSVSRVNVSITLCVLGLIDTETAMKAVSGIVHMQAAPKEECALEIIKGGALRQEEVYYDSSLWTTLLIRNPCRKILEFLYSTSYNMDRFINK

SMILES	Inhibition of human 11β-HSD1 enzyme activity (in words) (human 11β-HSD1 [1]; concentrations up to 10 μM, data not shown)	Metabolism by 11β-HSD1 in intact cells (in words) (human 11β-HSD1 [2])	IC50 (human 11β-HSD1 [1]; 10 min, 37°C) [nM]	Vapp cell intact (human 11β-HSD1 [2]; intact HEK-293 cells, substrate concentration 1 μM)	IC50 (human 11β-HSD1 [1]) [nM]
C[C@@H](CO)CCC[C@@H](C)[C@H]1CC[C@H]2[C@@H]3[C@H](O)C=C4C[C@@H](O)CC[C@]4(C)[C@H]3CC[C@]12C [7α27OHC]	did not inhibit the enzyme activity	neither 7α27OHC nor 7β27OHC was oxidized	–	–	–
CC(CO)CCC[C@@H](C)[C@H]1CC[C@H]2[C@@H]3C(=O)C=C4C[C@@H](O)CC[C@]4(C)[C@H]3CC[C@]12C (stereo partly shown) [7k27OHC, 7-keto,27-hydroxycholesterol]	–	stereo-specifically converted to 7β27OHC	357 ± 38	0.52 ± 0.10 nmol·h^−1·mg total protein^−1 and 0.52 ± 0.10^a nmol·h^−1·mg total protein^−1	–
CC(CO)CCC[C@@H](C)[C@H]1CC[C@H]2[C@@H]3[C@@H](O)C=C4C[C@@H](O)CC[C@]4(C)[C@H]3CC[C@]12C (stereo partly drawn) [7β27OHC, 7β,27-dihydroxycholesterol]	–	neither 7α27OHC nor 7β27OHC was oxidized	–	–	≥ 3000
